Results from patent publication US20210278408A1, “METHODS OF TREATMENT OF CANCER WITH SUBSTITUTED PYRROLE AND PYRAZOLE COMPOUNDS AND DIAGNOSIS OF CANCERS SUSCEPTIBLE TO TREATMENT WITH SUBSTITUTED PYRROLE AND PYRAZOLE COMPOUNDS” (Bantam Pharmaceutical, LLC, priority 2018, published 2021).
Where two headings read alike, the source gives them in different places.

Tested on: 407 cancer cell lines
Test: Cell viability of cancer cell lines (IC50), CellTiter-Glo Viability Assay, 96 h
Format: cell-based
Conditions: for IC50: read-out: Absolute IC50
Experimental: Viability was determined by using the 50% inhibitory concentration (IC50) as determined with the CellTiter-Glo® Viability Assay (Promega).
Experiments were initiated by first thawing and equilibrating the CellTiter-Glo® Buffer to room temperature. The lyophilized CellTiter-Glo® Substrate was also equilibrated to room temperature. The lyophilized substrate was reconstituted with the CellTiter-Glo® buffer to form the CellTiter-Glo® Reagent.
Cells were harvested during the logarithmic growth period, counted, and the cell concentration adjusted to 4.44×10^4 cells/mL using culture medium.
Cells were allowed to grow overnight and the following day, the TO reading was obtained by adding 10 μL culture medium to each well of Plate A. The plate was allowed to equilibrate at room temperature for thirty minutes, after which 50 μL CellTiter-Glo® reagent was added to each well. The contents were mixed for 5 min on an orbital shaker to induce cell lysis. Plates were incubated for 20 minutes to stabilize the luminescent signal and the TO luminescence recorded.
Test plate B was incubated for 96 h in the humidified incubator at 37° C. with 5% CO2.
Following the incubation, the plate was equilibrated at room temperature for thirty minutes. CellTiter-Glo® (50 μL) was added to each well of the plate and contents mixed for five minutes on an orbital shaker to induce cell lysis. The luminescent signal was allowed to stabilize at room temperature for 20 minutes and the luminescence recorded.
IC50 (EC50) was calculated using a dose-response curve, fitted using a nonlinear regression model with a sigmoidal dose response. Survival rate was calculated using the formula:
The Surviving rate (%)=(LumTest article−LumMedium control)/(LumNon-treated−LumMedium control)×100%.
Absolute IC50 (EC50) was calculated according to the dose-response curve generated by the statistical software (GraphPad Prism 5.0).

SMILES: N.N.[Cl][Pt][Cl] [Cisplatin, reference compound]
- IC50 (22Rv1 cells, 96 h): 3.05 µM
- IC50 (769-P cells, 96 h): 0.97 µM
- IC50 (786-O cells, 96 h): 1.43 µM
- IC50 (8505C): 2.01 µM
- IC50 (A3/KAW cells, 96 h): 0.93 µM
- IC50 (A253 cells, 96 h): 1.24 µM
- IC50 (A498 cells, 96 h): 4.28 µM
- IC50 (A549 cells, 96 h): 4.35 µM
- IC50 (A875 cells, 96 h): 1.86 µM
- IC50 (A2058, 96 h): 0.77 µM
- IC50 (A2780 cells, 96 h): 1.38 µM
- IC50 (A2780cis cells, 96 h): 5.55 µM
- IC50 (A-172 cells, 96 h): 8.58 µM
- IC50 (A-204 cells, 96 h): 1.05 µM
- IC50 (A-375, 96 h): 1.04 µM
- IC50 (A-427 cells, 96 h): 5.78 µM
- IC50 (A-431, 96 h): 2.07 µM
- IC50 (A-673 cells, 96 h): 0.26 µM
- IC50 (ACHN cells, 96 h): 1.74 µM
- IC50 (AGS cells, 96 h): 4.99 µM
- IC50 (AMO-1 cells, 96 h): 1.92 µM
- IC50 (AN3 CA, 96 h): 3 µM
- IC50 (ASH-3 cells, 96 h): 2.72 µM
- % inhibition at top conc. (AsPC-1 cells, 96 h): 78.18%
- IC50 (AsPC-1 cells, 96 h): 4.94 µM
- IC50 (BT474 cells, 96 h): 59 µM
- IC50 (BT-20 cells, 96 h): 2.15 µM
- % inhibition at top conc. (BT-483): 75.40%
- IC50 (BT-483): 48.2 µM
- IC50 (BT-549 cells, 96 h): 4.7 µM
- IC50 (BxPC-3): 1.27 µM
- IC50 (C4-2, 96 h): 14.9 µM
- % inhibition at top conc. (C666-1 cells, 96 h): 73.03%
- IC50 (C666-1 cells, 96 h): 18.1 µM
- IC50 (C-33 A cells, 96 h): 0.92 µM
- IC50 (CADO-ES1): 1.03 µM
- IC50 (CAL-27 cells, 96 h): 0.89 µM
- IC50 (CAL-120): 7.91 µM
- IC50 (CAMA-1, 96 h): 9.44 µM
- IC50 (CCK-81 cells, 96 h): 4.51 µM
- IC50 (CCRF-CEM): 0.55 µM
- IC50 (CFPAC-1): 4.13 µM
- IC50 (COLO 205, 96 h): 1.97 µM
- IC50 (COLO 320DM, 96 h): 3.18 µM
- IC50 (COV644 cells, 96 h): 14.2 µM
- IC50 (Ca Ski cells, 96 h): 6.44 µM
- IC50 (Caki-2): 3.35 µM
- IC50 (Calu-1): 4.77 µM
- % inhibition at top conc. (Calu-3, 96 h): 77.35%
- IC50 (Calu-3, 96 h): 0.35 µM
- IC50 (Calu-6): 0.71 µM
- IC50 (Caov-3 cells, 96 h): 3.61 µM
- IC50 (Capan-1): 0.68 µM
- IC50 (Capan-2): 21.9 µM
- IC50 (CoC1/DDP cells, 96 h): 5.78 µM
- IC50 (CoC1 cells, 96 h): 3.24 µM
- IC50 (DLD-1): 2.43 µM
- IC50 (DMS 53 cells, 96 h): 2.85 µM
- IC50 (DMS 79): 0.81 µM
- IC50 (DMS 114 cells, 96 h): 2.02 µM
- IC50 (DOHH-2 cells, 96 h): 0.19 µM
- IC50 (DU 145, 96 h): 1.15 µM
- IC50 (DU4475): 1.35 µM
- IC50 (DV-90 cells, 96 h): 3.25 µM
- IC50 (Daoy cells, 96 h): 0.39 µM
- IC50 (Daudi cells, 96 h): 0.21 µM
- IC50 (Detroit 562 cells, 96 h): 1.35 µM
- IC50 (DoTc2 4510 cells, 96 h): 2.84 µM
- IC50 (EBC-1, 96 h): 4.61 µM
- IC50 (EFM-192A, 96 h): 11.3 µM
- IC50 (EJM cells, 96 h): 6.74 µM
- IC50 (EOL-1): 0.46 µM
- IC50 (ES-2 cells, 96 h): 3.51 µM
- IC50 (FTC-133): 0.98 µM
- IC50 (G-292 clone A141B1 cells, 96 h): 1.11 µM
- IC50 (GTL-16 cells, 96 h): 1.09 µM
- IC50 (H4 cells, 96 h): 2.26 µM
- IC50 (HBL-1): 1.21 µM
- IC50 (HCC38): 2.86 µM
- IC50 (HCC 94 cells, 96 h): 1.98 µM
- IC50 (HCC827 cells, 96 h): 8.58 µM
- IC50 (HCC1187 cells, 96 h): 2.01 µM
- IC50 (HCC1428): 34.9 µM
- IC50 (HCC1500): 7.64 µM
- IC50 (HCC1569): 5.78 µM
- IC50 (HCC1806 cells, 96 h): 2.23 µM
- IC50 (HCC1937): 5.07 µM
- IC50 (HCC1954): 7.18 µM
- IC50 (HCC2218, 96 h): 10.8 µM
- IC50 (HCC2935): 51.7 µM
- IC50 (HCC4006, 96 h): 5.76 µM
- IC50 (HCC-78 cells, 96 h): 2.25 µM
- IC50 (HCCC-9810): 2.96 µM
- % inhibition at top conc. (HCCLM3 cells, 96 h): 60.88%
- IC50 (HCCLM3 cells, 96 h): 10.8 µM
- IC50 (HCT-8): 9.04 µM
- IC50 (HCT-15): 3.26 µM
- IC50 (HCT-116): 4.03 µM
- % inhibition at top conc. (HEC-1-A cells, 96 h): 83.97%
- IC50 (HEC-1-A cells, 96 h): 13.3 µM
- IC50 (HEC-1-B cells, 96 h): 10.6 µM
- IC50 (HEL 92.1.7): 0.48 µM
- IC50 (HGC-27 cells, 96 h): 0.77 µM
- IC50 (HL-60): 1.15 µM
- IC50 (HLE cells, 96 h): 2.48 µM
- IC50 (HM-7, 96 h): 6.26 µM
- IC50 (HPAC): 14.3 µM
- IC50 (HT-3 cells, 96 h): 4.85 µM
- IC50 (HT-29): 2.89 µM
- IC50 (HT-55): 17.7 µM
- IC50 (HT-1080, 96 h): 3.53 µM
- IC50 (HT-1376): 3.28 µM
- IC50 (HeLa 229 cells, 96 h): 7.25 µM
- IC50 (HeLa cells, 96 h): 0.28 µM
- IC50 (Hep3B): 3.08 µM
- IC50 (Hep G2/C3A, 96 h): 1.84 µM
- IC50 (Hep G2): 4.51 µM
- IC50 (HuCCT1, 96 h): 10 µM
- IC50 (HuT 78): 0.5 µM
- IC50 (IHH-4 cells, 96 h): 2.65 µM
- IC50 (IM95m cells, 96 h): 8.43 µM
- IC50 (IMR-32 cells, 96 h): 0.06 µM
- IC50 (Ishikawa, 96 h): 2.75 µM
- IC50 (J82 cells, 96 h): 0.31 µM
- IC50 (JAR): 0.61 µM
- IC50 (JEG-3 cells, 96 h): 0.52 µM
- IC50 (JHH-1 cells, 96 h): 6.04 µM
- IC50 (JHH-4 cells, 96 h): 1.07 µM
- IC50 (JHH-5 cells, 96 h): 0.85 µM
- IC50 (JHH-7 cells, 96 h): 1.83 µM
- IC50 (JIMT-1 cells, 96 h): 6.96 µM
- IC50 (JJN-3 cells, 96 h): 4.08 µM
- IC50 (JVM-2): 1.46 µM
- IC50 (JVM-3): 1.12 µM
- IC50 (JVM-13): 0.54 µM
- IC50 (JeKo-1 cells, 96 h): 1.36 µM
- IC50 (Jurkat clone E6-1): 0.47 µM
- IC50 (K-562): 5.73 µM
- IC50 (KARPAS-299 cells, 96 h): 0.89 µM
- IC50 (KARPAS-422): 1.11 µM
- % inhibition at top conc. (KATO III, 96 h): 67.05%
- IC50 (KATO III, 96 h): 10.5 µM
- IC50 (KG-1): 2.02 µM
- IC50 (KHOS/NP cells, 96 h): 1.33 µM
- IC50 (KMH-2 cells, 96 h): 2.65 µM
- IC50 (KMS-11): 2.16 µM
- IC50 (KP4 cells, 96 h): 6.25 µM
- IC50 (KPL-4): 1.37 µM
- IC50 (KYSE-70): 6.11 µM
- IC50 (KYSE-150): 1.79 µM
- IC50 (KYSE-270): 2.15 µM
- IC50 (KYSE-410 cells, 96 h): 13.5 µM
- IC50 (Kasumi-1): 2.92 µM
- IC50 (L-82): 1.16 µM
- IC50 (L-363): 1.83 µM
- IC50 (LN-18 cells, 96 h): 0.7 µM
- IC50 (LN-229 cells, 96 h): 7.68 µM
- IC50 (LNCaP clone FGC, 96 h): 3.43 µM
- IC50 (LP-1): 7.62 µM
- IC50 (LS123 cells, 96 h): 12 µM
- IC50 (LS 180): 6.27 µM
- IC50 (LS411N): 15.1 µM
- IC50 (LS513 cells, 96 h): 2.81 µM
- IC50 (LS1034 cells, 96 h): 6.52 µM
- IC50 (Li-7): 0.63 µM
- IC50 (LoVo): 8.27 µM
- IC50 (M059K cells, 96 h): 2.66 µM
- IC50 (MC/CAR cells, 96 h): 3.15 µM
- IC50 (MCF7): 11.8 µM
- IC50 (MDA-MB-231): 23 µM
- IC50 (MDA-MB-415): 37.9 µM
- IC50 (MDA-MB-436, 96 h): 0.5 µM
- IC50 (MDA-MB-453): 4.86 µM
- IC50 (MDA-MB-468 cells, 96 h): 0.27 µM
- IC50 (ME-180 cells, 96 h): 0.84 µM
- IC50 (MEG-01): 1.9 µM
- IC50 (MES-SA cells, 96 h): 0.66 µM
- IC50 (MES-SA/DX5 cells, 96 h): 2.77 µM
- IC50 (MFE-296 cells, 96 h): 3.31 µM
- % inhibition at top conc. (MHCC97-H): 83.30%
- IC50 (MHCC97-H): 7.89 µM
- IC50 (MIA PaCa-2): 2.74 µM
- IC50 (MKN1 cells, 96 h): 1.46 µM
- IC50 (MKN45, 96 h): 5.47 µM
- % inhibition at top conc. (MKN74 cells, 96 h): 84.20%
- IC50 (MKN74 cells, 96 h): 11.2 µM
- IC50 (ML-2): 1.21 µM
- IC50 (MM.1R): 0.81 µM
- IC50 (MM.1S): 1.02 µM
- IC50 (MOLM-13 cells, 96 h): 0.78 µM
- IC50 (MOLM-16 cells, 96 h): 0.87 µM
- IC50 (MOLP8 cells, 96 h): 1.75 µM
- IC50 (MS751 cells, 96 h): 4.61 µM
